Values of other authors, collected in publication PMC8075256, “Transport of Alzheimer’s associated amyloid-β catalyzed by P-glycoprotein” (PLOS ONE, 2021).

Tested on: P-gp and BCRP
Conditions: ref 65 Kannan et al.
Source text: To further test if P-gp can transport Aβ42, we performed fluorescence accumulation assays in a human cellular system. […] Previous work by our group has shown that the chemotherapy-sensitive, non-P-gp-overexpressing DU145 cells do express detecta ...

COc1cc2c(cc1OC)CN(CCc1ccc(NC(=O)c3cc(OC)c(OC)cc3NC(=O)c3cnc4ccccc4c3)cc1)CC2 [Tariquidar]
concentrations at which TQR acts as an inhibitor of both P-gp and BCRP: greater than 100 nM
